Experimental data: patent US5985893A, “Physically stable solid form of a fluoroquinolone” (Pharmacia & Upjohn Company, priority 1996, dated 1999)
In brackets after ≈: the same amount, converted by molar mass. Several values for one entry are separate records, joined by “and”; a condition that tells them apart may be missing. Equal values may be shown once. Entries after “also recorded” stand apart in the source; their conditions may differ.

Assays:
Format in all cases: physicochemical
[1] = DSC and thermomicroscopy of solid-state transformations
Method: A Nikon POH-2 polarized light compound microscope with 10× objective is employed to view specimens mounted dry between a glass microscope slide and a no. 11/2 Cover slip. The samples are heated from ambient through 250° C. in a Mettler FP-80 microfurnace controlled by a Mettler FP-8 microprocessor. The heating rates may vary from 5-20° C./minute. The hot-stage experiments may be videotaped (Sony T120-HG and PM VHS tape) with a Hitachi VK-C350 Color Video Camera and a Panasonic AG-6200 Video Cassette Recorder.
Differential scanning calorimetry (DSC) is used to monitor enthalpy changes as a function of temperature during a linear temperature increase. A DuPont 910 DSC interfaced to a TA Instruments TA2100 computer may be used. The scan rate is 5° C./minute, and the instrument is operated with a 50-80 cc/min dry nitrogen purge. Samples are encapsulated in hermetically sealed aluminum sample pans with a pressure rating of about 2 bar. In some experiments, the lids of the pans are perforated to permit the passage of moisture and other volatile components.
Because calorimetric samples are occasionally affected by residual moisture, samples are sometimes studied with different initial water activities. Samples are weighed into tared DSC pans, and the open pans are permitted to equilibrate for several days in chambers of constant relative humidity at 25±1° C. These chambers are prepared from saturated salt solutions at 53% RH and 75% RH. At the end of the equilibration period, the chambers are opened, and the lids are placed over the samples to prevent re-equilibration with the ambient atmosphere. The samples are removed from the chambers, and the pans are quickly crimped closed.
Detailed description of FIG. 8. […] The heating rate is 5° C./minute. (a.) The sample is encapsulated in a standard DSC pan. (b.) The sample is encapsulated in a hermetically sealed DSC pan. The profiles are offset along the ordinate axis for comparison.
Detailed description of FIG. 10. […] The heating rate was 5° C./minute. (a.) The sample was equilibrated at 53% RH and encapsulated in a standard DSC pan. (b.)The sample was equilibrated at 53% RH and encapsulated in a hermetically sealed DSC pan. (c.) The sample was equilibrated at 75% RH and encapsulated in a hermetically sealed DSC pan. The profiles were offset along the ordinate axis for comparison.

[2] = Stability of the solid forms to phase transformation (overall finding); details: variety of conditions
[3] = Solubility of the quinolone, Forms I and III, in ethyl acetate; details: 20° C, two values given
Method: Bulk drug samples are prepared by dissolving the material in mobile phase at a final concentration of approximately 0.25 to 0.5 mg/ml. For solubility experiments, 100 mcl aliquots of ethyl acetate solutions are withdrawn and placed directly into HPLC autosampler vials. A gentle stream of nitrogen gas is used to evaporate the solvent in the sample vials. The solids are reconstituted with 0.5 ml of HPLC mobile phase prior to analysis.
Solubilities are measured in ethyl acetate. Five to ten milligrams of bulk drug are placed into an amber autoinjector vial, and 3.0 ml of ethyl acetate are added. The vials are capped and shaken for intervals up to 24 hours at room temperature using a Burrell model BB wrist-action shaker. Aliquots are withdrawn from the supernate after centrifugation. The final sample is taken from a quiescent solution which had not been shaken since the 24 hour timepoint.
The solubilities of Forms I and III were determined in ethyl acetate at room temperature; the solubility data for each form was gathered simultaneously, to assure that each form's solubility was measured under identical conditions. Ethyl acetate was employed as an aprotic solvent yielding fairly low equilibrium solubilities of the quinolone; ethyl acetate has been used to evaluate the difference in free energy of polymorphic forms of an antinociceptive drug, as described by K. Raghavan et al., J. Pharm. Biomed. Anal. Vol.12 (6), pp. 777-785 (1994). Under the assumption that the solubilities in TABLE S are consistent with the dilute solution limit, we can use the following expression to calculate the difference in Gibbs free energy between Form I and Form III: [formula] where "sx " is the solubility of Form x in a sufficiently dilute solution, R is the gas constant, and T is the absolute temperature. Using the data in Table 1, we find that the Gibbs free energy of Form III is lower than that of Form I by 7.7±0.2 kJ/mole.

[4] = Dynamic moisture sorption gravimetry (controlled atmosphere microbalance, 25° C)
Method: Dynamic Moisture Sorption Gravimetry
Dynamic moisture uptake is studied on the controlled atmosphere microbalance system at 25° C. About ten mg of sample are equilibrated on the balance for about 2 hours at 2.5% RH. The relative humidity surrounding the sample is increased in increments of 3% RH up to about 92% RH, at which point the RH is decremented in 3% steps to a final RH of about 2.5%. At each relative humidity, the sample is allowed to equilibrate until the mass is stable within 0.0005 mg over a ten minute period. The dry mass is assumed to correspond to the mass of the sample after the initial equilibration period. A controlled atmosphere microbalance is a balance system described by Bergren, M.S. Int. J. Pharm. (1994) Vol. 103, pp. 103-114.
(§1) Detailed description of FIG. 2. […] The ordinate represents the mass change relative to the lowest mass measurement. The abscissa is relative humidity. The circles represent points recorded after sequential increases in the relative humidity and the squares were recorded after decreases in the relative humidity. The horizontal line in the middle of the plot corresponds to the water content of the hypothetical monohydrate of the quinolone.
as §1, with “6.” for “2.”

[5] = Isothermal calorimetry (ITC) of Form I to Form III conversion; details: after ITC at 40° C
Method: Isothermal calorimetry (ITC) experiments are conducted using a model 2277 microcalorimeter made by ThermoMetric (see Suurkuusk, J.:Wadso, I. Chem. Scr. (1982) Vol. 20 pp. 155-163). The Digitam® version 2.1 software from Thermometric is used to display the data and to integrate the total heat obtained from the samples. Heat flow is monitored as a function of time at 60° C. and at 40° C. Both glass and stainless steel ampules are used to hold the solid samples and the reference material (quartz sand). Samples are thermally equilibrated for a period ranging from 15 minutes (glass ampules) to 1 hour (stainless steel ampules) prior to recording thermal data. The weight of the samples ranged from about 75 to 300 mg. Samples in glass ampules are equilibrated via the isopiestic method at 53% or 75% RH in chambers containing saturated solutions of sodium chloride or calcium nitrate tetrahydrate. The ampules are capped immediately after removing the samples. Other samples are equilibrated using "microhygrostats" containing small quantities of saturated salt solutions which are sealed within the ampules. This arrangement provided for nearly constant relative humidity as the crystal conversion proceeded.
We therefore studied the transformation of samples after equilibration at […] and 75% RH. […] HPLC analysis of the reaction product confirmed that the 60° C. ITC profiles contained negligible contributions from chemical decomposition.
A detailed explanation of FIG. 9 follows. […] Trace (a) is recorded from a sample of Form I equilibrated to 75% relative humidity before sealing the sample container and exposing it to the 60° C. conditions in the calorimeter. Trace (b) is recorded for a sample of Form I at 60° C., but a 75% relative humidity "microhygrostat" is placed in the sample container just prior to recording the data. The conversion is delayed from that of trace (a) due to the fact that the water must be transported from the microhygrostat to the Form I crystals during the experiment. Trace (c) is recorded for a sample of Form I at 60° C., but the sample was equilibrated at 53% relative humidity prior to sealing the sample container.
This trace results from placing a 75% relative humidity microhygrostat into the sample container just prior to recording the data. The sample is held at 40° C. in the calorimeter; the heat flow results as the Form I material converts to Form III.

[6] = Enthalpies of solution (solution calorimetry); details: Form III grown directly from solution
Method: The enthalpies of solution are determined in 50 mL of 0.1 M HCl at 25.0±0.05° C. Samples (0.10-0.11 g ) are weighed in 2 ml spherical, soft glass ampules and dried overnight in an evacuated desiccator over P2 O5. The ampules are removed, capped, weighed, and flame sealed. The enthalpies of solution are measured on a Tronac model 458 isoperibol solution calorimeter. The calorimetric accuracy of this instrument is within 1% based on calibration with tris(hydroxymethyl)-aminomethane (TRIS) in 0.1 N HCl.

CN[C@@H](C)[C@@H]1CCN(c2c(F)cc3c(=O)c(C(=O)O)cn(C4CC4)c3c2OC)C1 [Form II, [S-(R*,S*)]-1-cyclopropyl-6-fluoro-1,4-dihydro-8-methoxy-7-[3-[1-(methylamino)ethyl]-1-pyrrolidinyl]-4-oxo-3-quinolinecarboxylic acid]
Temperature of Form II to Form III transformation ([1]; melt/recrystallization): 166-171 °C | Stability to transformation (in words) [2]: undergo phase transformations under a variety of conditions

CN[C@@H](C)[C@@H]1CCN(c2c(F)cc3c(=O)c(C(=O)O)cn(C4CC4)c3c2OC)C1 [Form III, [S-(R*,S*)]-1-cyclopropyl-6-fluoro-1,4-dihydro-8-methoxy-7-[3-[1-(methylamino)ethyl]-1-pyrrolidinyl]-4-oxo-3-quinolinecarboxylic acid]
Solubility, concentration ([3]; 1 hour, 60 min): 0.06 mg/mL and 0.09 mg/mL | Solubility, concentration ([3]; 2 hours, 120 min): 0.11 mg/mL (≈ 273 µM) | Solubility, concentration ([3]; 4.5 hours, 270 min): 0.12 mg/mL (≈ 297 µM) | Solubility, concentration ([3]; 18 hours, 1080 min): 0.14 mg/mL (≈ 347 µM) | Solubility, concentration ([3]; 24 hours, 1440 min): 0.15 mg/mL (≈ 372 µM) | Solubility, concentration ([3]; 67.5 hours (not shaken after 24 hours), 4050 min): 0.14 mg/mL (≈ 347 µM) | Moisture sorption behaviour (in words) ([4]; 25° C, sorption/desorption): sorbs less moisture than Form I at all relative humidities; also recorded: very little hysteresis between the sorption and desorption profiles, and the sample exhibited no evidence of recrystallization and/or hydrate Formation | Moisture adsorbed ([4]; throughout the entire RH range): less than 0.5% | Moisture content of recovered Form III crystals [5]: 0.61% | Enthalpy of Form III lower than Form I by [6]: about 8.8 kJ/mole | Enthalpy of fusion ([1]; DSC): approximately 150 J/g | Stability to transformation (in words) [2]: stable to transformation

CN[C@@H](C)[C@@H]1CCN(c2c(F)cc3c(=O)c(C(=O)O)cn(C4CC4)c3c2OC)C1 [Form MS, [S-(R*,S*)]-1-cyclopropyl-6-fluoro-1,4-dihydro-8-methoxy-7-[3-[1-(methylamino)ethyl]-1-pyrrolidinyl]-4-oxo-3-quinolinecarboxylic acid]
Stability to transformation (in words) [2]: undergo phase transformations under a variety of conditions | Stability to transformation (in words) ([2]; listed as methanolate): desolvates to yield Form I under such mild conditions that solvent is not normally retained in the product crystals
